US5693620A, “Plasmalopsychosines and plasmalocerebrosides” (Oncomembrane, Inc., priority 1994, dated 1997)
Entries after “also recorded” stand apart in the source; their conditions may differ.

What was measured:
[1] = Acid lability of glycolipids (aqueous HCl/methanol, TLC mobility); format: physicochemical; details: methanol-aqueous 0.1N HCl 1:1, 90° C., 10 min
Experimental: Acid-labile glycolipids were detected by hydrolysis of samples in methanol-aqueous 0.1N HCl (1:1, v/v) heated at 90° C. for 10 min, followed by Folch partitioning and TLC examination of lower phase. The glycolipid with high TLC mobility converting to the same mobility as normal cerebroside by this treatment was regarded as the acid-labile cerebroside.

[2] = Cytotoxicity and growth inhibition in neuroblastoma cell lines; format: cell-based; details: various neuroblastoma cell lines; read-out: concentration at which cell growth was inhibited, morphology changed and cells eventually died
neuroblastoma cell lines = test: as above; format: cell-based; details: various neuroblastoma cell lines
[3] = tested on: mouse neuroblastoma Neuro-2A cells; details: previously reported for a ganglioside effect; cited from earlier work

**Q.** With `CCCCCCCCCCCCCCC[C@@H](O)C(=O)N[C@@H](CO[C@@H]1O[C@H](CO)[C@@H](O)[C@H](O)[C@H]1O)[C@H](O)/C=C/CC/C=C(\C)CCCCCCCCC` [Cerebroside] as the compound, how does the “TLC mobility after acid hydrolysis” value [1] read?
**A.** did not show altered TLC mobility

**Q.** For `CCCCCCCCCCCCC/C=C/[C@@H](O)[C@@H](N)CO[C@@H]1O[C@H](CO)[C@H](O)[C@H](O)[C@H]1O` [psychosine, galactosylsphingosine], which MCC [2] is on record?
**A.** 10 to 20 µg/mL

**Q.** And the “cytotoxic effect / growth inhibition (in words)” value (neuroblastoma cell lines)?
**A.** strong cytotoxic effect; also recorded: cytotoxic effects and inhibited cell growth even at very low doses

**Q.** Which “concentration required for ganglioside effect on neurite formation” value [3] does the source give for GT1b here?
**A.** 200 µg/mL
